Patent publication US12410160B2 (Gilead Sciences, Inc., priority 2021, dated 2025)
pIC50: −log10 of the molar value. Where “and” joins values, the source holds several entries; their conditions need not be identical. Equal values may be shown once.

Columns and labels:
human KHK-A = human KHK-A (Homo sapiens (Human), UniProt P50053); assay: KHK Biochemical Assay (IC50), ADP-Glo, KHK-A; conditions: ADP-Glo; average of at least two separate assays
Procedure: The His-tagged fusion protein was expressed using BL21 (DE3) with IPTG induction and purified using Ni-NTA column followed by dialysis into final buffer containing 25 mM Tris-HCl pH 8.0, 250 mM NaCl.
KHK Biochemical Assay (IC50)
Compounds were tested for KHK enzyme inhibition in a high-throughput 384-well assay format using the ADP-Glo assay (Promega) in buffer consisting of 50 mM Hepes (pH 7.4), 140 mM KCl, 5 mM MgCl2 and 0.01% Triton-X. 0.2 nM. […] Compounds were serially diluted (1:3) in DMSO.
The compounds were pre-incubated with 5 μL of 2× final enzyme concentration for 30 minutes before adding 5 μL of 2× final concentration of ATP and fructose. The plates were incubated at room temperature for 4 hours before adding ADP-Glo reagent to quench the enzyme reaction, followed by incubation at room temperature for 1 hour. The ADP-Glo detection reagent was then added to the plates and luminescence was measured on the Envision plate reader after 1 hour.

human KHK-C = human KHK-C (Homo sapiens (Human), UniProt P50053); assay: KHK Biochemical Assay (IC50), ADP-Glo, KHK-C; conditions: ADP-Glo; average of at least two separate assays
human KHK-C, sequence (P50053 whole entry): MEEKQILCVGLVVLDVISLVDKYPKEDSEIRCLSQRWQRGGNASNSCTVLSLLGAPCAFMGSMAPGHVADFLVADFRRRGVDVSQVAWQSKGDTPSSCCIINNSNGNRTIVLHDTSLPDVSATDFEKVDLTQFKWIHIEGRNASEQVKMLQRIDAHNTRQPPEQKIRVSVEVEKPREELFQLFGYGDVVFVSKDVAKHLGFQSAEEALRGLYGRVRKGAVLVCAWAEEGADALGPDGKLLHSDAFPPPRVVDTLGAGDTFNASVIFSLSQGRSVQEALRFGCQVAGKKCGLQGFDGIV
Procedure, shortened: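 His-tagged enzyme expressed in BL21 (DE3), Ni-NTA purified. Compounds, serially diluted 1:3 in DMSO, pre-incubated 30 min with enzyme in 50 mM Hepes pH 7.4, 140 mM KCl, 5 mM MgCl2, 0.01% Triton-X, then ATP and fructose added; 4 h at room temperature. ADP formation read by ADP-Glo luminescence.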

human KHK-A, sequence (P50053 other isoform, or with tags, fused parts or gaps): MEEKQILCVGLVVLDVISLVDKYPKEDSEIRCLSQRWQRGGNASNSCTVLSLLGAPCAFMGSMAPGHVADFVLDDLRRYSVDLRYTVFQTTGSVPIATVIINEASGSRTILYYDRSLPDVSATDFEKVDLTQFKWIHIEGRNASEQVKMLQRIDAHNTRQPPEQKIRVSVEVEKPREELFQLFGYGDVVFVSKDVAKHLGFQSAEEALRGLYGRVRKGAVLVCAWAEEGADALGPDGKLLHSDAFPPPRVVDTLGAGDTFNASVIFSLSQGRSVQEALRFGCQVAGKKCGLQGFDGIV

SMILES | pIC50 (human KHK-A) | pIC50 (human KHK-C)
C[C@H]1CCN1c1nc2c(c(-c3ccc(-c4ccccc4)nc3)n1)CCC2 [Example 55, (S)-2-(2-methylazetidin-1-yl)-4-(6-phenylpyridin-3-yl)-6,7-dihydro-5H-cyclopenta[d]pyrimidine] | 5.97 | 6.10
C[C@H]1CCN1c1nc2c(c(-c3ccc(C(N)=O)s3)n1)CCC2 [Example 56, (S)-5-(2-(2-methylazetidin-1-yl)-6,7-dihydro-5H-cyclopenta[d]pyrimidin-4-yl)thiophene-2-carboxamide] | 8.42 | 8.11
C[C@H]1CCN1c1nc2c(c(-c3cccc(C(=O)NCCO)c3)n1)CCC2 [Example 61, (S)—N-(2-hydroxyethyl)-3-(2-(2-methylazetidin-1-yl)-6,7-dihydro-5H-cyclopenta[d]pyrimidin-4-yl)benzamide] | 7.25 | 7.04
C[C@H]1CCN1c1nc(-c2cccc(C(N)=O)c2)c2c(n1)[C@H]1CC[C@@H]2C1 [Example 62, 3-((5R,8S)-2-((S)-2-methylazetidin-1-yl)-5,6,7,8-tetrahydro-5,8-methanoquinazolin-4-yl)benzamide] | 5.72 | 5.53
C[C@H]1CCN1c1nc2c(c(-c3cccc(C(=O)Nc4cn[nH]c4)c3)n1)CCC2 [Example 64, (S)-3-(2-(2-methylazetidin-1-yl)-6,7-dihydro-5H-cyclopenta[d]pyrimidin-4-yl)-N-(1H-pyrazol-4-yl)benzamide] | 7.28 | 6.97
C[C@H]1CCN1c1nc2c(c(-c3cccc(C(=O)Nc4cc[nH]n4)c3)n1)CCC2 [Example 65, (S)-3-(2-(2-methylazetidin-1-yl)-6,7-dihydro-5H-cyclopenta[d]pyrimidin-4-yl)-N-(1H-pyrazol-3-yl)benzamide] | 6.82 | 6.61
C[C@H]1CCN1c1nc2c(c(-c3cccc(C(=O)NC4(C(=O)O)CC4)c3)n1)CCC2 [Example 67, (S)-1-(3-(2-(2-methylazetidin-1-yl)-6,7-dihydro-5H-cyclopenta[d]pyrimidin-4-yl)benzamido)cyclopropane-1-carboxylic acid] | 6.89 | 6.85
C[C@H]1CCN1c1nc2c(c(-c3cccc(C(=O)N4CC(C(=O)O)C4)c3)n1)CCC2 [Example 68, (S)-1-(3-(2-(2-methylazetidin-1-yl)-6,7-dihydro-5H-cyclopenta[d]pyrimidin-4-yl)benzoyl)azetidine-3-carboxylic acid] | 7.03 | 7.35
C[C@H]1CCN1c1nc2c(c(-c3cccc(C(=O)N4CC(CC(=O)O)C4)c3)n1)CCC2 [Example 69, (S)-2-(1-(3-(2-(2-methylazetidin-1-yl)-6,7-dihydro-5H-cyclopenta[d]pyrimidin-4-yl)benzoyl)azetidin-3-yl)acetic acid] | 6.54 | 6.84
C[C@H]1CCN1c1nc2c(c(-c3cccc(N)c3)n1)CCC2 [Example 71, (S)-3-(2-(2-methylazetidin-1-yl)-6,7-dihydro-5H-cyclopenta[d]pyrimidin-4-yl)aniline] | 6.97 | 6.98
C[C@H]1CCN1c1nc2c(c(-c3cccc(NS(=O)(=O)c4cn(C)cn4)c3)n1)CCC2 [Example 73, (S)-1-methyl-N-(3-(2-(2-methylazetidin-1-yl)-6,7-dihydro-5H-cyclopenta[d]pyrimidin-4-yl)phenyl)-1H-imidazole-4-sulfonamide] | 6.76 | 6.81
Cc1noc(C)c1S(=O)(=O)Nc1cccc(-c2nc(N3CC[C@@H]3C)nc3c2CCC3)c1 [Example 76, (S)-3,5-dimethyl-N-(3-(2-(2-methylazetidin-1-yl)-6,7-dihydro-5H-cyclopenta[d]pyrimidin-4-yl)phenyl)isoxazole-4-sulfonamide] | 5.94 | 6.06
C[C@H]1CCN1c1nc2c(c(-c3cccc(C(=O)N4CC[C@H]4C(=O)O)c3)n1)CCC2 [Example 77, (S)-1-(3-(2-((S)-2-methylazetidin-1-yl)-6,7-dihydro-5H-cyclopenta[d]pyrimidin-4-yl)benzoyl)azetidine-2-carboxylic acid] | 6.55 | 6.50
C[C@H]1CCN1c1nc2c(c(-c3cccc(C(=O)N4CC[C@@H]4C(=O)O)c3)n1)CCC2 [Example 78, (R)-1-(3-(2-((S)-2-methylazetidin-1-yl)-6,7-dihydro-5H-cyclopenta[d]pyrimidin-4-yl)benzoyl)azetidine-2-carboxylic acid] | 6.71 and 6.87 | 6.62 and 6.89
CC(=O)Nc1ncc(S(=O)(=O)Nc2cccc(-c3nc(N4CC[C@@H]4C)nc4c3CCC4)c2)s1 [Example 84, (S)—N-(5-(N-(3-(2-(2-methylazetidin-1-yl)-6,7-dihydro-5H-cyclopenta[d]pyrimidin-4-yl)phenyl)sulfamoyl)thiazol-2-yl)acetamide] | 6.53 | 6.55
C[C@H]1CCN1c1nc2c(c(-c3cc(C(N)=O)ns3)n1)CCC2 [Example 85, (S)-5-(2-(2-methylazetidin-1-yl)-6,7-dihydro-5H-cyclopenta[d]pyrimidin-4-yl)isothiazole-3-carboxamide] | 5.95 | 5.86

SMILES | pIC50 (human KHK-A) | pIC50 (human KHK-C)
C[C@H]1[C@H](N)CN1c1nc2c(c(-c3ccc(C(N)=O)cc3)n1)CCC2 [Example 93] | < 5.30 | < 5.30
c1ccc(-c2nc(C3CC3)nc3c2CCC3)cc1 [Example 96, 2-cyclopropyl-4-phenyl-6,7-dihydro-5H-cyclopenta[d]pyrimidine] | 5.33 | < 5.30
c1ccc(-c2nc(C3CCC3)nc3c2CCC3)cc1 [Example 97, 2-cyclobutyl-4-phenyl-6,7-dihydro-5H-cyclopenta[d]pyrimidine] | 6.03 | 5.65
c1ccc(-c2nc(C3CC4CCC3C4)nc3c2CCC3)cc1 (centres unmarked) [Example 98, 2-(bicyclo[2.2.1]heptan-2-yl)-4-phenyl-6,7-dihydro-5H-cyclopenta[d]pyrimidine] | < 5.30 | < 5.30
c1ccc(-c2nc(C3CNC3)nc3c2CCC3)cc1 [Example 99, 2-(azetidin-3-yl)-4-phenyl-6,7-dihydro-5H-cyclopenta[d]pyrimidine] | < 5.30 | < 5.30
Cc1nnc(-c2ccc(-c3nc(N4CC[C@@H]4C)nc4c3CCC4)cc2)o1 [Example 100, (S)-2-methyl-5-(4-(2-(2-methylazetidin-1-yl)-6,7-dihydro-5H-cyclopenta[d]pyrimidin-4-yl)phenyl)-1,3,4-oxadiazole] | 6.79 | 6.79
C[C@H]1CCN1c1nc2c(c(-c3ccc(-c4nccn4C)cc3)n1)CCC2 [Example 101, (S)-4-(4-(1-methyl-1H-imidazol-2-yl)phenyl)-2-(2-methylazetidin-1-yl)-6,7-dihydro-5H-cyclopenta[d]pyrimidine] | 7.16 | 6.92
C[C@H]1CCN1c1nc2c(c(-c3ccc(-n4cccn4)cc3)n1)CCC2 [Example 102, (S)-4-(4-(1H-pyrazol-1-yl)phenyl)-2-(2-methylazetidin-1-yl)-6,7-dihydro-5H-cyclopenta[d]pyrimidine] | 6.56 | 6.38
C[C@H]1CCN1c1nc2c(c(-c3ccc(-c4ccn[nH]4)cc3)n1)CCC2 [Example 103, (S)-4-(4-(1H-pyrazol-5-yl)phenyl)-2-(2-methylazetidin-1-yl)-6,7-dihydro-5H-cyclopenta[d]pyrimidine] | 6.15 | 5.89
CC1CN(c2nc3c(c(-c4ccc(C(N)=O)cc4)n2)CCC3)C1C (centres unmarked) [Example 105, 4-(2-(2,3-dimethylazetidin-1-yl)-6,7-dihydro-5H-cyclopenta[d]pyrimidin-4-yl)benzamide] | 6.60 | 6.69
C[C@@H]1[C@@H](C)CN1c1nc2c(c(-c3ccc(C(N)=O)cc3)n1)CCC2 [Example 108] | 6.23 | 6.33
C[C@@H]1CN(c2nc3c(c(-c4ccc(C(N)=O)cc4)n2)CCC3)[C@@H]1C [Example 109, 4-(2-((2R,3R)-2,3-dimethylazetidin-1-yl)-6,7-dihydro-5H-cyclopenta[d]pyrimidin-4-yl)benzamide] | 5.49 | 5.60
Cc1nc2cc(-c3nc(N4CC[C@@H]4C)nc4c3CCC4)ccc2s1 [Example 110, (S)-2-methyl-5-(2-(2-methylazetidin-1-yl)-6,7-dihydro-5H-cyclopenta[d]pyrimidin-4-yl)benzo[d]thiazole] | 6.49 | 6.87
C#CC1CCN1c1nc2c(c(-c3ccc(C(N)=O)cc3)n1)CCC2 (centres unmarked) [Example 111, 4-(2-(2-ethynylazetidin-1-yl)-6,7-dihydro-5H-cyclopenta[d]pyrimidin-4-yl)benzamide] | 6.73 | 6.82
C[C@H]1[C@H](O)CN1c1nc2c(c(-c3cccc(C4CC4C(N)=O)c3)n1)CCC2 (stereo partly drawn) [Example 112, 2-(3-(2-((2S,3R)-3-hydroxy-2-methylazetidin-1-yl)-6,7-dihydro-5H-cyclopenta[d]pyrimidin-4-yl)phenyl)cyclopropane-1-carboxamide] | 6.99 | 7.16
